Source: the supplement of paper PMC10307832

How the values were obtained:
Assay in all cases: relative viability (nuclei count vs DMSO), 5 days (fraction); higher = more cells survive
[1] = compound: O=C(Nc1c[nH]nc1-c1nc2ccc(CN3CCOCC3)cc2[nH]1)NC1CC1 [AT9283] + Nc1ncn([C@H]2C[C@H](O)[C@@H](CO)O2)c(=O)n1 [Decitabine] (partner 2 µM)
Summary of the method: (§1)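 Dosing by pin tool came one day after lung cancer cell lines were seeded in 1536-well plates, using either one drug or a fixed anchor-drug dose plus five library-drug doses (not always all listed) in √10 steps. After 5 days, nuclei were counted on 4× images. Relative viability is treated-well nuclei count divided by vehicle-well nuclei count, and values are medians of duplicate plates.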

[2] = compound: C#Cc1cccc(Nc2ncnc3cc(OCCOC)c(OCCOC)cc23)c1 [Erlotinib] + O=C(c1cc(Cc2n[nH]c(=O)c3ccccc23)ccc1F)N1CCN(C(=O)C2CC2)CC1 [Olaparib] (partner 8 µM)
Summary of the method: as §1

[3] = compound: C#Cc1cccc(Nc2ncnc3cc(OCCOC)c(OCCOC)cc23)c1 [Erlotinib] + NC(=O)Nc1cc(-c2cccc(F)c2)sc1C(=O)N[C@H]1CCCNC1 [AZD7762] (partner 0.2 µM)
Summary of the method: as §1

[4] = compound: C#Cc1cccc(Nc2ncnc3cc(OCCOC)c(OCCOC)cc23)c1 [Erlotinib] + CC(=O)Nc1cccc(-n2c(=O)n(C3CC3)c(=O)c3c(Nc4ccc(I)cc4F)n(C)c(=O)c(C)c32)c1 [Trametinib] (partner 0.02 µM)
Summary of the method: as §1

[5] = compound: O=C(Nc1c[nH]nc1-c1nc2ccc(CN3CCOCC3)cc2[nH]1)NC1CC1 [AT9283] + CS(=O)(=O)CCNCc1ccc(-c2ccc3ncnc(Nc4ccc(OCc5cccc(F)c5)c(Cl)c4)c3c2)o1 [Lapatinib] (partner 2 µM)
Summary of the method: as §1

Cell Line | relative viability ([1]; first compound 0.003 µM) | relative viability ([1]; first compound 0.03 µM) | relative viability ([1]; first compound 0.09487 µM) | relative viability ([1]; first compound 0.3 µM) | relative viability ([2]; first compound 0.02 µM) | relative viability ([2]; first compound 0.2 µM) | relative viability ([2]; first compound 2 µM) | relative viability ([3]; first compound 0.02 µM) | relative viability ([3]; first compound 0.2 µM) | relative viability ([3]; first compound 0.6325 µM) | relative viability ([3]; first compound 2 µM) | relative viability ([4]; first compound 0.02 µM) | relative viability ([4]; first compound 0.2 µM) | relative viability ([4]; first compound 0.6325 µM) | relative viability ([4]; first compound 2 µM) | relative viability ([5]; first compound 0.003 µM) | relative viability ([5]; first compound 0.03 µM) | relative viability ([5]; first compound 0.09487 µM) | relative viability ([5]; first compound 0.3 µM) | relative viability ([2]; first compound 0.6325 µM)
HCC-78 | 0.548 | 0.626 | 0.428 | 0.322 | 0.877 | 0.634 | 0.728 | 0.5 | 0.55 | 0.524 | 0.369 | 0.768 | 0.524 | 0.683 | 0.58 | 0.562 | 0.587 | 0.224 | 0.196 | –
HCC-366 | 0.337 | 0.299 | 0.141 | 0.0851 | 0.331 | 0.359 | 0.242 | 0.346 | 0.258 | 0.191 | 0.0996 | 0.335 | 0.294 | 0.277 | 0.215 | 1.01 | 0.0702 | 0.0449 | 0.0374 | 0.353
HCC-827 | 0.235 | 0.234 | 0.258 | 0.214 | 0.243 | 0.147 | 0.139 | 0.137 | 0.153 | 0.116 | 0.123 | 0.205 | 0.159 | 0.148 | 0.169 | 0.195 | 0.216 | 0.191 | 0.164 | 0.149
IA-LM | – | – | – | – | 0.757 | – | 0.905 | – | – | – | – | – | – | – | – | 0.793 | 0.27 | 0.0791 | 0.0891 | –
LCLC-103H | 0.755 | 0.774 | 0.444 | 0.35 | 0.745 | 0.75 | 0.707 | 0.801 | 0.875 | 0.874 | 0.669 | 0.727 | 0.636 | 0.661 | 0.62 | – | – | – | – | –
NCI-H520 | 0.381 | 0.297 | 0.272 | 0.171 | 0.413 | 0.343 | 0.335 | – | – | – | – | 0.689 | 0.666 | 0.744 | 0.687 | 0.77 | 0.295 | 0.21 | 0.196 | 0.37
NCI-H522 | 0.67 | 0.607 | 0.569 | 0.479 | 0.614 | 0.553 | 0.422 | 0.812 | 0.893 | 1.02 | 0.833 | 0.665 | 0.697 | 0.705 | 0.676 | – | – | – | – | 0.61
NCI-H661 | 0.579 | 0.422 | 0.406 | 0.272 | 0.801 | 0.79 | 0.615 | – | – | – | – | 0.601 | 0.483 | 0.593 | 0.457 | 0.471 | 0.518 | 0.276 | 0.286 | 0.74
NCI-H1299 | – | – | – | – | 0.988 | 1.01 | 1 | – | – | – | – | – | – | – | – | 1.02 | 0.509 | 0.404 | 0.343 | 0.959
NCI-H1563 | – | – | – | – | – | – | – | – | – | – | – | – | – | – | – | 0.941 | 0.811 | 0.843 | 0.701 | –
NCI-H1648 | 0.515 | 0.503 | 0.409 | 0.303 | 1.4 | 0.517 | 0.442 | – | 0.649 | 0.64 | 0.465 | 0.5 | 0.313 | 0.348 | 0.289 | – | – | – | – | 0.692
NCI-H1650 | 0.565 | 0.499 | 0.387 | 0.238 | 0.821 | 0.685 | 0.644 | – | – | – | – | 0.477 | 0.443 | 0.561 | 0.382 | 0.697 | 0.287 | 0.225 | 0.115 | 0.61
NCI-H1703 | – | – | – | – | 0.48 | 0.512 | 0.389 | 0.113 | 0.133 | 0.142 | 0.115 | – | – | – | – | 1.24 | 0.277 | 0.31 | 0.354 | 0.43
NCI-H2009 | 0.378 | 0.358 | 0.225 | 0.222 | 0.783 | 0.73 | 0.627 | – | – | – | – | 0.385 | 0.306 | 0.301 | 0.239 | 1.01 | 0.337 | 0.31 | 0.305 | 0.792
NCI-H2023 | 0.202 | 0.202 | 0.127 | 0.0969 | 0.46 | 0.43 | 0.432 | – | – | – | – | 0.558 | 0.369 | 0.418 | 0.32 | 0.778 | 0.133 | 0.122 | 0.0743 | 0.54
NCI-H2228 | – | – | – | – | 0.678 | 0.701 | 0.604 | – | – | – | – | 0.436 | 0.708 | 0.49 | 0.381 | 1.06 | 0.367 | 0.115 | 0.141 | 0.537
NCI-H2342 | 0.653 | 0.766 | 0.655 | 0.455 | 0.378 | 0.425 | 0.383 | 0.453 | 0.566 | 0.502 | – | 1.14 | 0.814 | 0.803 | 0.74 | – | – | – | – | 0.462
SK-LU-1 | 0.62 | 0.423 | 0.415 | 0.407 | 0.536 | 0.551 | 0.455 | – | – | – | – | 0.495 | – | 0.566 | 0.434 | 0.933 | 0.371 | 0.274 | 0.272 | 0.403
SK-MES-1 | 0.396 | 0.334 | 0.306 | 0.138 | 0.821 | 0.563 | 0.346 | – | – | – | – | 0.494 | 0.345 | 0.347 | 0.312 | 0.427 | 0.547 | 0.349 | 0.263 | 0.465
SW 900 | 0.422 | 0.442 | 0.349 | 0.232 | 0.907 | 0.846 | – | 0.783 | 0.52 | 0.557 | 0.443 | 0.867 | 0.761 | 0.771 | 0.631 | – | – | – | – | 0.84
SW 1573 | 0.394 | 0.175 | 0.171 | 0.143 | 0.502 | 0.494 | 0.364 | – | – | – | – | 0.568 | 0.557 | 0.526 | 0.474 | 1.15 | 0.494 | 0.188 | 0.244 | 0.558
UMC-11 | 0.57 | 0.217 | 0.261 | 0.201 | 0.987 | 0.426 | 0.324 | – | – | – | – | 0.738 | 0.637 | 0.916 | 0.71 | 0.978 | 0.142 | 0.128 | 0.202 | 0.477
